Experimental data: patent US4258180A, “C6-Modified cyclodextrin sulfate salts as complement inhibitors” (American Cyanamid Company, priority 1979, dated 1981)
Counter-ions that a name gives are not always drawn.

What was measured:
Type in all cases: biochemical
[1] = system: late components of human complement (C3-C9); experiment: Test Code 035 (C3-C9 inhibitor), lysis of EAC 142; conditions: serial dilution assay, twofold dilutions; higher well number indicates higher activity; N = Negative
Source text: (§1) An active inhibitor protects C2 from C1 and C4; (ii) Test Code 035 (C3-C9 inhibitor)--This test determines the ability of the late components of human complement (C3-C9) to lyse EAC 142 in the presence of appropriate dilutions of the test compound. An active inhibitor protects EAC 142 from lysis by human C3-C9; (iii) Test Code 036 (C-Shunt inhibitor)--In this test human erythrocytes rendered fragile are lysed in autologous serum via the shunt pathway activated by cobra venom factor in the presence of appropriate dilutions of the test compound. Inhibition of the shunt pathway results in failure of lysis; (iv) Forssman Vasculitis Test--Here, the well known complement dependent lesion, Forssman Vasculitis, is produced in guinea pigs by intradermal injection of rabbit anti-Forssman antiserum. The lesion is measured in terms of diameter, edema and hemorrhage and the extent to which a combined index of these is inhibited by prior intraperitoneal injection of the test compound at 200 mg/kg is then reported, unless otherwise stated; (v) Forssman Shock Test--Lethal shock is produced in guinea pigs by an i.v. injection of anti-Forssman antiserum and the harmonic mean death time of treated guinea pigs is compared with that of simultaneous controls; (vi) Complement Level Reduction Test--In this test, the above dosed guinea pigs, or others, are bled for serum and the complement level is determined in undiluted serum by the capillary tube method of U.S. Pat. No. 3,876,376 and compared to undosed control guinea pigs; and (vii) Cap 50 Test--Here, appropriate amounts of the test compound are added to a pool of guinea pig serum in vitro, after which the undiluted serum capillary tube assay referred to above is run. The concentration of compound inhibiting 50% is reported.

activated human C1 = activated human C1 (Homo sapiens, UniProt P09871); experiment: Test Code 026 (C1 inhibitor); conditions: serial dilution assay, twofold dilutions; higher well number indicates higher activity
Source text: as §1

shunt pathway = experiment: Test Code 036 (C-Shunt inhibitor), lysis of fragile human erythrocytes in autologous serum, cobra venom factor; conditions: serial dilution assay, twofold dilutions; higher well number indicates higher activity; N = Negative
Source text: as §1

Structure (SMILES) | 035 Activity in wells [1] | 026 Activity in wells (activated human C1) [wells] | 036 Activity in wells (shunt pathway)
C[C@H]1O[C@@H]2O[C@H]3[C@H](OS(=O)(=O)O)[C@@H](OS(=O)(=O)O)[C@@H](O[C@H]4[C@H](OS(=O)(=O)O)[C@@H](OS(=O)(=O)O)[C@@H](O[C@H]5[C@H](OS(=O)(=O)O)[C@@H](OS(=O)(=O)O)[C@@H](O[C@H]6[C@H](OS(=O)(=O)O)[C@@H](OS(=O)(=O)O)[C@@H](O[C@H]7[C@H](OS(=O)(=O)O)[C@@H](OS(=O)(=O)O)[C@@H](O[C@H]1[C@H](OS(=O)(=O)O)[C@H]2OS(=O)(=O)O)O[C@@H]7C)O[C@@H]6C)O[C@@H]5C)O[C@@H]4C)O[C@@H]3C [α-Cyclo[6-deoxy]dextrin poly(H-sulfate)poly-trimethylamine s] [6,6',6",6'",6"",6'""-Hexadeoxy-α-cyclodextrin, dodecakis(H-sulfate), dodecasalt with trimethylamine] | N | 7 | 3 wells
C[C@H]1O[C@@H]2O[C@H]3[C@H](OS(=O)(=O)O)[C@@H](OS(=O)(=O)O)[C@@H](O[C@H]4[C@H](OS(=O)(=O)O)[C@@H](OS(=O)(=O)O)[C@@H](O[C@H]5[C@H](OS(=O)(=O)O)[C@@H](OS(=O)(=O)O)[C@@H](O[C@H]6[C@H](OS(=O)(=O)O)[C@@H](OS(=O)(=O)O)[C@@H](O[C@H]7[C@H](OS(=O)(=O)O)[C@@H](OS(=O)(=O)O)[C@@H](O[C@H]8[C@H](OS(=O)(=O)O)[C@@H](OS(=O)(=O)O)[C@@H](O[C@H]1[C@H](OS(=O)(=O)O)[C@H]2OS(=O)(=O)O)O[C@@H]8C)O[C@@H]7C)O[C@@H]6C)O[C@@H]5C)O[C@@H]4C)O[C@@H]3C [β-Cyclo[6-deoxy]dextrin poly(H-sulfate)poly-sodium salt] [6,6',6",6'",6"",6'"",6"""-Heptadeoxy-β-cyclodextrin, tetradecakis(H-sulfate), tetradecasodium salt] | 4 wells | 9 | 5 wells
[N-]=[N+]=NC[C@H]1O[C@@H]2O[C@H]3[C@H](OS(=O)(=O)O)[C@@H](OS(=O)(=O)O)[C@@H](O[C@H]4[C@H](OS(=O)(=O)O)[C@@H](OS(=O)(=O)O)[C@@H](O[C@H]5[C@H](OS(=O)(=O)O)[C@@H](OS(=O)(=O)O)[C@@H](O[C@H]6[C@H](OS(=O)(=O)O)[C@@H](OS(=O)(=O)O)[C@@H](O[C@H]7[C@H](OS(=O)(=O)O)[C@@H](OS(=O)(=O)O)[C@@H](O[C@H]1[C@H](OS(=O)(=O)O)[C@H]2OS(=O)(=O)O)O[C@@H]7CN=[N+]=[N-])O[C@@H]6CN=[N+]=[N-])O[C@@H]5CN=[N+]=[N-])O[C@@H]4CN=[N+]=[N-])O[C@@H]3CN=[N+]=[N-] [α-Cyclo[6-azido-6-deoxy]dextrin poly(H-sulfate)poly-trimethy] [6,6',6",6'",6"",6'""-Hexaazido-6,6',6",6'",6"",6'""-hexadeoxy-α-cyclodextrin, dodecakis(H-sulfate), dodecasalt with trimethylamine] | N | 2 | N
C[C@H]1O[C@@H]2O[C@H]3[C@H](OS(=O)(=O)O)[C@@H](OS(=O)(=O)O)[C@@H](O[C@H]4[C@H](OS(=O)(=O)O)[C@@H](OS(=O)(=O)O)[C@@H](O[C@H]5[C@H](OS(=O)(=O)O)[C@@H](OS(=O)(=O)O)[C@@H](O[C@H]6[C@H](OS(=O)(=O)O)[C@@H](OS(=O)(=O)O)[C@@H](O[C@H]7[C@H](OS(=O)(=O)O)[C@@H](OS(=O)(=O)O)[C@@H](O[C@H]1[C@H](OS(=O)(=O)O)[C@H]2OS(=O)(=O)O)O[C@@H]7C)O[C@@H]6C)O[C@@H]5C)O[C@@H]4C)O[C@@H]3C [α-Cyclo[6-deoxy]dextrin poly(H-sulfate)poly-sodium salt] [6,6',6",6'",6"",6'""-Hexadeoxy-α-cyclodextrin, dodecakis(H-sulfate), dodecasodium salt] | 1 wells | 8 | 4 wells
O=S(=O)(O)O[C@@H]1[C@@H](OS(=O)(=O)O)[C@H]2O[C@H]3[C@H](OS(=O)(=O)O)[C@@H](OS(=O)(=O)O)[C@@H](O[C@H]4[C@H](OS(=O)(=O)O)[C@@H](OS(=O)(=O)O)[C@@H](O[C@H]5[C@H](OS(=O)(=O)O)[C@@H](OS(=O)(=O)O)[C@@H](O[C@H]6[C@H](OS(=O)(=O)O)[C@@H](OS(=O)(=O)O)[C@@H](O[C@H]7[C@H](OS(=O)(=O)O)[C@@H](OS(=O)(=O)O)[C@@H](O[C@H]8[C@H](OS(=O)(=O)O)[C@@H](OS(=O)(=O)O)[C@@H](O[C@@H]1[C@@H](CBr)O2)O[C@@H]8CBr)O[C@@H]7CBr)O[C@@H]6CBr)O[C@@H]5CBr)O[C@@H]4CBr)O[C@@H]3CBr [β-Cyclo[6-bromo-6-deoxy]dextrin poly(H-sulfate)poly-sodium s] [6,6',6",6'",6"",6'"",6"""-Heptabromo-6,6',6",6'",6"",6'"",6"""-heptadeoxy-β-cyclodextrin, tetradecakis(H-sulfate), tetradecasodium salt] | 3 wells | 7 | 5 wells
[N-]=[N+]=NC[C@H]1O[C@@H]2O[C@H]3[C@H](OS(=O)(=O)O)[C@@H](OS(=O)(=O)O)[C@@H](O[C@H]4[C@H](OS(=O)(=O)O)[C@@H](OS(=O)(=O)O)[C@@H](O[C@H]5[C@H](OS(=O)(=O)O)[C@@H](OS(=O)(=O)O)[C@@H](O[C@H]6[C@H](OS(=O)(=O)O)[C@@H](OS(=O)(=O)O)[C@@H](O[C@H]7[C@H](OS(=O)(=O)O)[C@@H](OS(=O)(=O)O)[C@@H](O[C@H]8[C@H](OS(=O)(=O)O)[C@@H](OS(=O)(=O)O)[C@@H](O[C@H]1[C@H](OS(=O)(=O)O)[C@H]2OS(=O)(=O)O)O[C@@H]8CN=[N+]=[N-])O[C@@H]7CN=[N+]=[N-])O[C@@H]6CN=[N+]=[N-])O[C@@H]5CN=[N+]=[N-])O[C@@H]4CN=[N+]=[N-])O[C@@H]3CN=[N+]=[N-] [β-Cyclo[6-azido-6-deoxy]dextrin poly(H-sulfate)poly-trimethy] [6,6',6",6'",6"",6'"",6"""-Heptaazido-6,6',6",6'",6"",6'"",6"""-heptadeoxy-β-cyclodextrin, tetradecakis(H-sulfate), tetradecasalt with trimethylamine] | N | 2 | N
C[C@H]1O[C@@H]2O[C@H]3[C@H](OS(=O)(=O)O)[C@@H](OS(=O)(=O)O)[C@@H](O[C@H]4[C@H](OS(=O)(=O)O)[C@@H](OS(=O)(=O)O)[C@@H](O[C@H]5[C@H](OS(=O)(=O)O)[C@@H](OS(=O)(=O)O)[C@@H](O[C@H]6[C@H](OS(=O)(=O)O)[C@@H](OS(=O)(=O)O)[C@@H](O[C@H]7[C@H](OS(=O)(=O)O)[C@@H](OS(=O)(=O)O)[C@@H](O[C@H]8[C@H](OS(=O)(=O)O)[C@@H](OS(=O)(=O)O)[C@@H](O[C@H]1[C@H](OS(=O)(=O)O)[C@H]2OS(=O)(=O)O)O[C@@H]8C)O[C@@H]7C)O[C@@H]6C)O[C@@H]5C)O[C@@H]4C)O[C@@H]3C [β-Cyclo[6-deoxy]dextrin poly(H-sulfate)poly-trimethylamine s] [6,6',6",6'",6"",6'"",6"""-Heptadeoxy-β-cyclodextrin, tetradecakis(H-sulfate), tetradecasalt with trimethylamine] | 2 wells | 7 | 4 wells
